Numbered stars: 1 amine (or outer) side, 2 acyl side, 3 side chain; on linkers, the order of the positions; unused ones are H or OH. Square brackets hold non-standard residues; d marks the D form. Peptide text beside a SMILES is read from it. LeuΨ(CH2N)Pro = CC(C)C[C@@H](CN1CCC[C@H]1C(=O)[*:2])N[*:1]; X1 = O=C([C@@H]1CCCN1C[C@H](Cc1ccc(O)cc1)N[*:1])[*:2]; X2 = O=C([C@@H]1CCCN1C[C@H](Cc1ccccc1)N[*:1])[*:2]; X3 = CCCC[C@@H](CN(C)[C@@H](CCCC)C(=O)[*:2])N[*:1]; X4 = C[C@@H](CN1CCC[C@H]1C(=O)[*:2])N[*:1]

As usually defined, the Km is the concentration of substrate that gives half-maximal velocity. One may read the Vmax as the rate approached at saturating substrate. The Ki is a dissociation constant, usually derived from enzyme kinetics or from competition with a known ligand.

The first data set concerns the target T1, HIV protease (Human immunodeficiency virus type 1 group M subtype B, UniProt P04585).
Test: not given
The following applies: Darke et al. 1988; cited from earlier work.
Regarding QNY-PIV, the “cleavage by HIV protease” value is “failed to be cleaved”.
Consider SQNY-PI, for which the “cleavage by HIV protease” value is “failed to be cleaved”.
Take VSQNYPIV: the Km was 2500 µM.
In the case of acetyl-QNY-PIV, the “cleavage by HIV protease” value was “failed to be cleaved”.

The data set is the same for the next values; noted with them: Darke et al. 1988; of the rate of VSQNYPIV; cited from earlier work.
Regarding SQNY-PIV, the “cleavage rate relative to the octapeptide” value is on record as 90%.

Another data set addresses T1, HIV protease. In words: HIV protease assay, substrate cleavage (relative hydrolysis rates, Km, Vmax). It is filed as biochemical, HIV-1. The following applies: percent of standard substrate concentration cleaved in twenty minutes, relative to Ac-Thr-Ile-Met-Met-Gln-Arg-NH2 = 1.00.
Aba--Thr--Ile--Nle--PnF--Gln--Arg--NH2: the “Relative Rate” value amounted to 1.46.
Consider Ac--Thr--Ile--Nle--Hle--Gln--Arg--NH2, for which the “Relative Rate” value is 0.95.
For “Ac-QNYPIV-NH2 [Ac--Gln--Asn--Tyr--Pro--Ile--Val--NH2]”, the “Relative Rate” value turned out to be 0.04.
For “Ac-TIMMQR-NH2 [Ac--Thr--Ile--Met--Met--Gln--Arg--NH2]”, the “Relative Rate” value was determined as 1.00.

The same data set, now with this note: substrate of HIV protease.
“Ac-TIMMQR-NH2 [Ac--Thr--Ile--Met--Met--Gln--Arg--NH2]”: the Vmax worked out at 725 nmol/min/mg.

A further data set concerns CD4+ human lymphocyte cells (H9 cells).
Test: not given
The following applies: preliminary.
Take `CC[C@H](C)[C@H](NC(=O)[C@@H]1CCCN1C[C@H](Cc1ccc(O)cc1)NC(=O)[C@H](CC(N)=O)NC(=O)[C@H](CCC(N)=O)NC(C)=O)C(=O)N[C@H](C(N)=O)C(C)C` [Ac--Gln--Asn--Tyr-.PSI.[CH2 N]--Pro--Ile--Val--NH2] (Ac-QN[X1]IV-NH2): the “toxicity as measured by cell count” value was “no apparent toxicity”.
The same measure, in the same setting: the result for `CCCC[C@@H](CN[C@@H](CCCC)C(=O)N[C@@H](CCC(N)=O)C(=O)N[C@@H](CCCNC(=N)N)C(N)=O)NC(=O)[C@@H](NC(=O)[C@@H](NC(C)=O)[C@@H](C)O)[C@@H](C)CC` [Ac--Thr--Ile--Nle-.PSI.[CH2 NH]--Nle--Gln--Arg--NH2] reads “no apparent toxicity”.

The next data set has as its target T1, HIV protease. In words: HIV protease assay, inhibition of cleavage of acetyl-Thr-Ile-Met-Met-Gln-Arg-NH2 (HPLC). It counts as biochemical, HIV-1. The conditions noted are these: affinities not fully characterized, classified by comparative inhibition studies; read-out: KI (affinity category).
Consider `CCCC[C@@H](CN[C@@H](CCCC)C(=O)N[C@H](C(=O)N[C@H](C(N)=O)[C@@H](C)O)[C@@H](C)CC)NC(=O)[C@H](CCC(N)=O)NC(=O)[C@H](CCCNC(=N)N)NC(C)=O` [Ac--Arg--Gln--Nle-.PSI.[CH2 NH]--Nle--Ile--Thr--NH2], for which the Ki was in the range of 1 to 100 µM.
Consider `CCCC[C@@H](CN[C@@H](CCCC)C(=O)N[C@@H](CCC(N)=O)C(=O)N[C@@H](CCCNC(=N)N)C(N)=O)NC(=O)[C@@H](NC(=O)[C@H](NC(C)=O)[C@H](C)O)[C@@H](C)CC` [Ac--D--Thr--Ile--Nle-.PSI.[CH2 NH]--Nle--Gln--Arg--NH2], for which the Ki lay within 1 to 100 µM.
For `CC(=O)NCC(=O)N[C@@H](CC(N)=O)C(=O)N[C@@H](Cc1ccc(O)cc1)CN1CCC[C@H]1C(=O)N[C@H](C(=O)N[C@@H](CCC(N)=O)C(N)=O)C(C)C` [Ac--Gly--Asn--Tyr-.PSI.[CH2 N]--Pro--Val--Gln--NH2] (Ac-GN[X1]VQ-NH2), the Ki fell in the range of 1 to 100 µM.
Still for that read-out and setting: in the case of `CC(=O)N[C@@H](CC(C)C)C(=O)N[C@@H](C)C(=O)N[C@@H](C)CN1CCC[C@H]1C(=O)N[C@@H](CCC(N)=O)C(=O)N[C@@H](Cc1ccccc1)C(N)=O` [Ac--Leu--Ala--Ala-.PSI.[CH2 N]--Pro--Gln--Phe--NH2] (Ac-LA[X4]QF-NH2) it was > 100 µM; in that of `CC[C@H](C)[C@H](NC(=O)[C@@H]1CCCN1C[C@H](Cc1ccccc1)NC(=O)[C@H](CC(N)=O)NC(=O)[C@H](CC(C)C)NC(C)=O)C(=O)N[C@@H](CO)C(=O)O` [Ac--Leu--Asn--Phe-.psi.[CH2 N]--Pro--Ile--Ser--OH] (Ac-LN[X2]IS-OH), 1 to 100 µM.
Turning to `CC[C@H](C)[C@H](NC(=O)[C@H](CCC(N)=O)NC(=O)[C@@H]1CCCN1C[C@H](Cc1ccccc1)NC(=O)[C@H](CC(N)=O)NC(=O)[C@H](Cc1ccccc1)NC(C)=O)C(N)=O` [Ac--Phe--Asn--Phe-.PSI.[CH2 N]--Pro--Gln--Ile--NH2] (Ac-FN[X2]QI-NH2), the Ki is 1 to 100 µM.
Consider `CC[C@H](C)[C@H](NC(=O)[C@H](CCC(N)=O)NC(=O)[C@@H]1CCCN1C[C@H](Cc1ccccc1)NC(=O)[C@H](CC(N)=O)NC(=O)[C@H](Cc1ccccc1)NC(=O)[C@H](CO)NC(C)=O)C(N)=O` [Ac--Ser--Phe--Asn--Phe-.PSI.[CH2 N]--Pro--Gln--Ile--NH2] (Ac-SFN[X2]QI-NH2), for which the Ki is 1 to 100 µM.
As to `CCCC[C@@H](CN[C@@H](CC1CCCCC1)C(=O)N[C@@H](CCC(N)=O)C(=O)N[C@@H](CCCNC(=N)N)C(N)=O)NC(=O)[C@@H](NC(=O)[C@@H](NC(C)=O)[C@@H](C)O)[C@@H](C)CC` [Ac--Thr--Ile--Nle-.PSI.[CH2 NH]--Cha--Gln--Arg--NH2], the Ki is < 1 µM.
On the same count and under the same terms, in the case of `CCCC[C@@H](CN[C@H](C(=O)N[C@@H](CCC(N)=O)C(=O)N[C@@H](CCCNC(=N)N)C(N)=O)[C@@H](C)CC)NC(=O)[C@@H](NC(=O)[C@@H](NC(C)=O)[C@@H](C)O)[C@@H](C)CC` [Ac--Thr--Ile--Nle-.PSI.[CH2 NH]--Ile--Gln--Arg--NH2] it was < 1 µM; in that of `CCCC[C@@H](CN[C@@H](CCCC)C(=O)N[C@@H](CCC(N)=O)C(=O)N[C@H](CCCNC(=N)N)C(N)=O)NC(=O)[C@@H](NC(=O)[C@@H](NC(C)=O)[C@@H](C)O)[C@@H](C)CC` [Ac--Thr--Ile--Nle-.PSI.[CH2 NH]--Nle--Gln--D--Arg--NH2], 1 to 100 µM.
Still for that read-out and setting: the result for `CCCC[C@@H](CN[C@@H](CCCC)C(=O)N[C@@H](CCC(N)=O)C(N)=O)NC(=O)[C@@H](NC(=O)[C@@H](NC(C)=O)[C@@H](C)O)[C@@H](C)CC` [Ac--Thr--Ile--Nle-.PSI.[CH2 NH]--Nle--Gln--NH2] reads 1 to 100 µM; that for `CCCC[C@@H](CN[C@@H](CCCC)C(=O)N[C@@H](CCC(N)=O)C(=O)N[C@@H](CCC)C(N)=O)NC(=O)[C@@H](NC(=O)[C@@H](NC(C)=O)[C@@H](C)O)[C@@H](C)CC` [Ac--Thr--Ile--Nle-.PSI.[CH2 NH]--Nle--Gln--Nva--NH2], 1 to 100 µM.
Same read-out and setting: in the case of `CCCC[C@@H](CN(C)[C@@H](CCCC)C(=O)N[C@@H](CCC(N)=O)C(=O)N[C@@H](CCCNC(=N)N)C(N)=O)NC(=O)[C@@H](NC(=O)[C@@H](NC(C)=O)[C@@H](C)O)[C@@H](C)CC` [Ac--Thr--Ile--Nle-.psi.[CH2 NH]--MeNle--Gln--Arg--NH2] (Ac-TI[X3]QR-NH2) it was > 100 µM; in that of `CCCC[C@@H](CNC1(C(=O)N[C@@H](CCC(N)=O)C(=O)N[C@@H](CCCNC(=N)N)C(N)=O)CCCC1)NC(=O)[C@@H](NC(=O)[C@@H](NC(C)=O)[C@@H](C)O)[C@@H](C)CC` [Ac--Thr--lle--Nle-.PSI.[CH2 NH]--Cle--Gln--Arg--NH2], > 100 µM; in that of `CCCC[C@@H](CN[C@@H](CC(C)C)C(=O)N[C@@H](CCC(N)=O)C(=O)N[C@@H](CCCNC(=N)N)C(N)=O)NC(=O)[C@@H](NC(=O)[C@@H](NC(C)=O)[C@@H](C)O)[C@@H](C)CC` [Ac--Thr--lle--Nle-.PSI.[CH2 NH]--Leu--Gln--Arg--NH2], < 1 µM.
For `CCCC[C@@H](CN[C@@H](Cc1ccccc1)C(=O)N[C@@H](CCC(N)=O)C(=O)N[C@@H](CCCNC(=N)N)C(N)=O)NC(=O)[C@@H](NC(=O)[C@@H](NC(C)=O)[C@@H](C)O)[C@@H](C)CC` [Ac--Thr--lle--Nle-.PSI.[CH2 NH]--Phe--Gln--Arg--NH2], the Ki was < 1 µM.
The same measure, in the same setting: in the case of `CC[C@H](C)[C@H](NC(=O)[C@@H]1CCCN1C[C@H](Cc1ccccc1)NC(=O)[C@H](CC(N)=O)NC(=O)[C@H](CC(C)C)NC(=O)[C@@H](N)[C@@H](C)O)C(=O)N[C@@H](CO)C(=O)O` [H2 N--Thr--Leu--Asn--Phe-.PSI.[CH2 N]--Pro--Ile--Ser--OH] (H-TLN[X2]IS-OH) it was 1 to 100 µM.

Still in this data set, the particulars now being: in vitro inhibition of HIV protease, pH 6.5, 25°; read-out: KI.
For the compound `CC[C@H](C)[C@H](NC(=O)[C@@H]1CCCN1C[C@H](Cc1ccc(O)cc1)NC(=O)[C@H](CC(N)=O)NC(=O)[C@H](CCC(N)=O)NC(C)=O)C(=O)N[C@H](C(N)=O)C(C)C` [Ac--Gln--Asn--Tyr-.PSI.[CH2 N]--Pro--Ile--Val--NH2] (Ac-QN[X1]IV-NH2), the Ki was found to be 17.2 µM.
Same read-out and setting: the result for `CC[C@H](C)[C@H](NC(=O)[C@@H](NC(C)=O)[C@@H](C)O)C(=O)N[C@H](CN[C@@H](CC(C)C)C(=O)N[C@@H](CCC(N)=O)C(=O)N[C@@H](CCCNC(=N)N)C(N)=O)CC(C)C` [Ac--Thr--lle--Leu-.PSI.[CH2 NH]--Leu--Gln--Arg--NH2] reads 0.734 µM; that for `CC(C)C[C@@H](CN1CCC[C@H]1C(=O)N[C@H](C(=O)N[C@@H](C)C(=O)O)C(C)C)NC(=O)[C@H](CC(N)=O)NC(=O)[C@H](CC(C)C)NC(=O)[C@@H](N)CO` [H2 N--Ser--Leu--Asn--Leu-.PSI.[CH2 N]--Pro--Val--Ala--OH] (H-SLN[LeuΨ(CH2N)Pro]VA-OH), 13.1 µM.

These data come from patent US5342922A, “Inhibitors of retroviral protease” (Washington University, priority 1989, dated 1994).
